Measured values: the supplement of paper PMC10307832

Columns and labels:
Assay in all cases: relative viability (nuclei count vs DMSO), 5 days (fraction); higher = more cells survive
CX-5461 + Alpelisib = compound: Cc1cnc(CNC(=O)c2c(=O)c3ccc(N4CCCN(C)CC4)nc3n3c2sc2ccccc23)cn1 [CX-5461] + Cc1nc(NC(=O)N2CCC[C@H]2C(N)=O)sc1-c1ccnc(C(C)(C)C(F)(F)F)c1 [Alpelisib] (partner 2 µM)
Outline: (§1)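 Lung cancer cell lines, seeded in 1536-well plates, were treated the following day by pin tool with a single drug or with five library-drug doses (not always all listed) in √10 steps on top of a fixed anchor-drug dose. Cells were fixed and nuclei stained in one step after 5 days, and nuclei were counted. Relative viability is the nuclei count for treated wells divided by that for vehicle wells, reported as medians of duplicate plates.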

IMD-0354 + Palbociclib = compound: O=C(Nc1cc(C(F)(F)F)cc(C(F)(F)F)c1)c1cc(Cl)ccc1O [IMD-0354] + CC(=O)c1c(C)c2cnc(Nc3ccc(N4CCNCC4)cn3)nc2n(C2CCCC2)c1=O [Palbociclib] (partner 0.5 µM)
Outline: as §1

IMD-0354 + AZD7762 = compound: O=C(Nc1cc(C(F)(F)F)cc(C(F)(F)F)c1)c1cc(Cl)ccc1O [IMD-0354] + NC(=O)Nc1cc(-c2cccc(F)c2)sc1C(=O)N[C@H]1CCCNC1 [AZD7762] (partner 0.2 µM)
Outline: as §1

IMD-0354 + Bortezomib = compound: O=C(Nc1cc(C(F)(F)F)cc(C(F)(F)F)c1)c1cc(Cl)ccc1O [IMD-0354] + CC(C)C[C@H](NC(=O)[C@H](Cc1ccccc1)NC(=O)c1cnccn1)B(O)O [Bortezomib] (partner 0.002 µM)
Outline: as §1

Row | Cell Line | relative viability (CX-5461 + Alpelisib; first compound 0.01 µM) | relative viability (CX-5461 + Alpelisib; first compound 0.03162 µM) | relative viability (CX-5461 + Alpelisib; first compound 0.1 µM) | relative viability (CX-5461 + Alpelisib; first compound 0.3162 µM) | relative viability (CX-5461 + Alpelisib; first compound 1 µM) | relative viability (IMD-0354 + Palbociclib; first compound 0.04 µM) | relative viability (IMD-0354 + Palbociclib; first compound 0.1265 µM) | relative viability (IMD-0354 + Palbociclib; first compound 0.4 µM) | relative viability (IMD-0354 + Palbociclib; first compound 1.265 µM) | relative viability (IMD-0354 + Palbociclib; first compound 4 µM) | relative viability (IMD-0354 + AZD7762; first compound 0.04 µM) | relative viability (IMD-0354 + AZD7762; first compound 0.1265 µM) | relative viability (IMD-0354 + AZD7762; first compound 0.4 µM) | relative viability (IMD-0354 + AZD7762; first compound 1.265 µM) | relative viability (IMD-0354 + AZD7762; first compound 4 µM) | relative viability (IMD-0354 + Bortezomib; first compound 0.04 µM) | relative viability (IMD-0354 + Bortezomib; first compound 0.1265 µM) | relative viability (IMD-0354 + Bortezomib; first compound 0.4 µM) | relative viability (IMD-0354 + Bortezomib; first compound 1.265 µM) | relative viability (IMD-0354 + Bortezomib; first compound 4 µM)
1 | NCI-H2170 | 0.766 | 0.834 | 0.889 | 0.913 | 0.718 | 0.425 | 0.394 | 0.342 | 0.385 | 0.229 | 0.946 | 0.978 | 0.818 | 0.767 | 0.151 |  |  |  |  | 
2 | NCI-H1944 | 0.806 | 0.936 | 0.808 |  | 0.831 | 0.289 | 0.324 | 0.341 | 0.382 | 0.139 | 0.433 | 0.541 | 0.488 | 0.321 | 0.156 |  |  |  |  | 
3 | NCI-H520 | 0.841 | 0.945 | 0.856 | 0.712 | 0.619 | 0.199 | 0.22 | 0.215 | 0.136 | 0.121 |  |  |  |  |  | 0.681 | 0.579 | 0.389 | 0.186 | 0.208
4 | A549 | 0.771 | 0.561 |  | 0.508 | 0.0561 |  |  |  |  |  |  |  |  |  |  |  |  |  |  | 
5 | SK-MES-1 | 0.886 | 0.964 | 1.08 | 0.952 | 0.522 | 0.337 | 0.286 | 0.317 | 0.232 | 0.221 |  |  |  |  |  |  |  |  |  | 
6 | NCI-H1563 | 0.903 | 0.85 | 0.899 | 0.901 | 0.489 |  |  |  |  |  |  |  |  |  |  | 1.01 | 0.927 | 0.768 | 0.403 | 0.38
7 | NCI-H1793 | 0.769 | 0.668 | 0.772 | 0.71 | 0.726 | 0.298 | 0.317 | 0.211 | 0.191 | 0.225 | 0.592 | 0.542 | 0.337 | 0.181 | 0.205 |  |  |  |  | 
8 | NCI-H2009 | 1.12 | 1.14 | 1.12 | 1.13 | 0.681 | 0.179 | 0.222 | 0.191 | 0.103 | 0.112 |  |  |  |  |  | 0.973 | 0.878 | 0.771 | 0.105 | 0.0845
9 | SW 900 |  |  |  |  |  | 0.517 | 0.629 | 0.478 | 0.187 | 0.248 | 0.649 | 0.693 | 0.441 | 0.24 | 0.254 |  |  |  |  | 
10 | IA-LM | 0.873 | 0.715 | 0.593 | 0.837 | 0.316 |  |  |  |  |  |  |  |  |  |  | 0.866 | 0.977 | 0.76 | 0.102 | 0.121
11 | SW 1573 | 0.733 | 0.788 | 0.91 | 0.822 | 0.36 | 0.533 | 0.315 | 0.237 | 0.147 | 0.121 |  |  |  |  |  | 1.38 | 0.96 | 0.479 | 0.563 | 0.132
12 | NCI-H1703 | 0.314 | 0.419 | 0.28 | 0.332 | 0.267 |  |  |  |  |  | 0.124 | 0.0845 | 0.141 | 0.142 | 0.117 | 0.234 | 0.3 | 0.352 | 0.168 | 0.102
13 | NCI-H1648 |  |  |  |  |  | 0.278 | 0.227 | 0.224 | 0.21 | 0.259 | 0.616 | 0.715 | 0.526 | 0.705 | 0.297 |  |  |  |  | 
